The values that follow come from PubChem BioAssay (NCI).

Holding throughout (assay): NCI-60 cell line screen, 48 h
Assay [1] has as its system LXFL 529 NSCLC.
In assay [2] the test system is RXF-631 renal.
Assay [3] concerns XF 498 CNS.
In assay [4] the test system is DMS 273 small cell lung.
For assay [5], the system named is KM20L2 colon.
Assay [6] deals with HOP-18 NSCLC.
In assay [7] the test system is MCF7 breast.
In assay [8] the test system is NCI/ADR-RES ovarian.
The test system of assay [9] is MDA-N.

Several values for one entry are separate records, joined by “and”; a condition that tells them apart may be missing. Identical values can stand only once.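 Each compound was tested at five concentrations against cells in 96-well plates for 48 hours. At the GI50, growth is halved. TGI marks complete inhibition of growth.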

In the case of `CCOC(=O)COc1cccc2c1C(=O)CCO2`, the TGI in assay [1], in assay [2], in assay [3], in [4] and in assay [5] was greater than 100 µM each time.
Regarding `CCOC(=O)c1ncn2c1[nH]c(=S)c1ccccc12`, the TGI in [1], in assay [2], in assay [4], in [6] and in assay [5] was greater than 100 µM each time.
With `CC1(C)COC(c2ccc(C(F)(F)F)cc2C(O)c2ccc3ccccc3c2)=N1` (stereo not drawn), the GI50 in [1], in assay [4], in assay [6] and in [5] was greater than 100 µM in each case. For the same molecule, the TGI in [1], in [2], in assay [3], in assay [4], in assay [6] and in [5] was greater than 100 µM in each case.
On to `CC(=O)N1[C@H](C(=O)O)CS[C@H]1c1ccncc1`, for which the TGI in assay [1], in assay [6] and in assay [5] was greater than 100 µM throughout.
In the case of `CC(=O)C(CN(C(C)C)C(C)C)C(c1ccccc1)c1c(O)c2ccccc2oc1=O` (stereo not drawn), the TGI in assay [1], in assay [2], in assay [4], in [6] and in [5] was greater than 100 µM throughout.
Regarding `Nc1ccc(C(=O)N/C(=C\c2ccc3c(c2)OCO3)c2nc3[nH]c(=S)[nH]c(=O)c3[nH]2)cc1`, the TGI in assay [1], in [2], in assay [3] and in [5] was greater than 100 µM in each case.
Turning to `CCN(CC)CC(C(=O)Nc1c(C)cccc1C)/C(C)=N\NC(=O)C[N+](C)(C)C` (stereo not drawn), the TGI in assay [1], in assay [3], in [4] and in assay [5] was greater than 100 µM throughout.
For the molecule `FC(F)(F)c1ccc(C2SCc3nc4ccccc4n32)cc1` (stereo not drawn), the TGI in [1], in assay [2], in assay [4] and in assay [6] was greater than 100 µM each time.
Regarding `C/C(CCn1[nH]c(=O)ccc1=O)=N\O`, the TGI in [1], in assay [2], in assay [3], in assay [4], in [6] and in assay [5] was greater than 100 µM throughout.
Turning to `NC(CCc1nc(-c2ccc(Cl)cc2)cs1)C(=O)O` (stereo not drawn), the TGI in assay [1], in [2], in [4], in assay [6] and in assay [5] was greater than 100 µM each time.
As for `CC(C)=CCCc1c(C)ccc2c1C(=O)C(=O)C(C(C)C)=C2`, the TGI in assay [1] is 6.65 µM; in assay [3], 7.15 µM; in assay [4], 7.47 µM; in assay [6] it was 8.12 µM; in assay [5], greater than 22 µM.
As to `NS(=O)(=O)c1ccccc1C(=O)N/N=C(\c1nc2ccc([N+](=O)[O-])cc2[nH]c1=O)C(O)c1ccc([N+](=O)[O-])cc1` (stereo not drawn), the TGI in assay [1], in assay [3], in assay [6] and in assay [5] was greater than 100 µM in each case.
In the case of `COc1ccc2c(c1)C1(C=N2)CCN(C(C)=O)CC1`, the TGI in [1], in [2], in [4], in [6] and in assay [5] was greater than 100 µM each time.
With `C=CCc1cc(OC)c2c(c1)C(O)CC(c1ccc(OC)c(OC)c1)O2` (stereo not drawn), the TGI in assay [1], in assay [4], in assay [6] and in [5] was greater than 100 µM throughout.
For the molecule `COC(=O)[C@@]12C3=NO[C@]1(C(=O)OC)C(O[Si](C)(C)C(C)(C)C)[C@H]1OC(C)(C)O[C@H]1[C@@H]2C(OCc1ccccc1)CC3` (stereo partly drawn), the TGI in assay [1], in assay [4], in assay [6] and in assay [5] was greater than 100 µM in each case.
Consider `Cc1cc(=O)[nH]c2cc3oc4ccccc4c3cc12`, for which the TGI in [7], in [8] and in [9] was greater than 100 µM throughout.
With `O=C(O)CCSC(=O)Nc1cccc(F)c1`, the TGI in assay [1], in [4] and in assay [5] was greater than 100 µM each time.
Take `COc1cc2cnc3c4cc(OC(C)C)c(OC)cc4ccc3c2cc1OC`: the TGI in assay [1], in [3], in [6] and in [5] was greater than 100 µM in each case.
Turning to `O=C1NNC(=O)c2ccccc2SSc2ccccc2C(=O)NNC(=O)c2ccccc2SSc2ccccc21`, the TGI was greater than 100 µM in assay [7]; 50 µM and > 100 µM in assay [8]; 50 µM and > 100 µM in assay [9]. Besides, the GI50 in assay [8] is 14 µM; in assay [9], 11.9 µM.
Regarding `COc1ccc(/C=C\c2cc(OC)c3c(c2)OCO3)c(O)c1O`, the TGI in assay [1] is 3.74 µM; in assay [3] it was 26.6 µM; in [4], greater than 100 µM; in assay [6], 46.4 µM; in [5] it was 61.5 µM.
